In patent publication USRE49735E1 (BRISTOL-MYERS SQUIBB COMPANY, priority 2010, dated 2023):
Values joined by “and” are separate entries in the source; they are usually repeats but may differ in a detail not shown here. Equal entries are not always repeated.

Molecular target: human mGluR5A (Homo sapiens, UniProt P41594)
Test: mGluR5 FLIPR Assay
Format: cell-based
Settings: positive modulator activity; HEK293 (ZF) cells with human mGluR5A and rat GLAST; Ca++ response to ~EC10 glutamate

human mGluR5A, sequence (P41594 21-1180 isoform P41594-2): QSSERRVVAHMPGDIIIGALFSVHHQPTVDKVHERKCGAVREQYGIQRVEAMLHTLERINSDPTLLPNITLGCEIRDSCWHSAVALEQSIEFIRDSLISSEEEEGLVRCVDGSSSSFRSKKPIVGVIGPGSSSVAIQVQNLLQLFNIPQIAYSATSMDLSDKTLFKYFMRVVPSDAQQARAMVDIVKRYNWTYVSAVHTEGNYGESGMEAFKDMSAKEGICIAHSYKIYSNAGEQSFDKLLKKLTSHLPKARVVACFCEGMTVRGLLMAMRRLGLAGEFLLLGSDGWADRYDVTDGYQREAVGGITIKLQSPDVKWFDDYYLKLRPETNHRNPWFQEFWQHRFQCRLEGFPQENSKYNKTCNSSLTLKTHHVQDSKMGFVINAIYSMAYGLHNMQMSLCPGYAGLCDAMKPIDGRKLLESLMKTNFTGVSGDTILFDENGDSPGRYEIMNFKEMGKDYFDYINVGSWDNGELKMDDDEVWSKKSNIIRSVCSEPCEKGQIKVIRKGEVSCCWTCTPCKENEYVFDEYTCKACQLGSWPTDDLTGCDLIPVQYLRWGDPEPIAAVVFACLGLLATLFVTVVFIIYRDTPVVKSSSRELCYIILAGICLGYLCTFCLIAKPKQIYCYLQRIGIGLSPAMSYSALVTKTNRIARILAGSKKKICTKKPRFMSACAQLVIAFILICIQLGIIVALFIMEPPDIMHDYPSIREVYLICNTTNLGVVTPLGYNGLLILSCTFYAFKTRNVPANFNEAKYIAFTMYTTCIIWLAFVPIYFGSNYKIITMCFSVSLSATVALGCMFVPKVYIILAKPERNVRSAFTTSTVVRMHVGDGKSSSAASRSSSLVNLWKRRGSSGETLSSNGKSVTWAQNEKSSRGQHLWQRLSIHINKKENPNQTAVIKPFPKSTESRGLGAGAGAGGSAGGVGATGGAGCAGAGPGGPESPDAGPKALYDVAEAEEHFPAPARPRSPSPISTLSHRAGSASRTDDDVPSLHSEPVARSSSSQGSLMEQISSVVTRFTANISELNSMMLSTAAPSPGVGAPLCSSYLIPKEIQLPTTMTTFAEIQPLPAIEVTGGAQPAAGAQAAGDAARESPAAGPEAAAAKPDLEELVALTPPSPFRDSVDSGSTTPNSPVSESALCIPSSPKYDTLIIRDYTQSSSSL

SMILES	EC50
COc1cccc([C@H]2OC(=O)N[C@@H]2c2cccc(C#Cc3ccccc3C#N)c2)c1 [Example 90, 2-((3-((4R,5R)-5-(3-Methoxyphenyl)-2-oxooxazolidin-4-yl)phenyl)ethynyl)benzonitrile]	> 1000 nM
O=C1N[C@H](c2cncc(C#Cc3cnccn3)c2)[C@@H](c2cc(F)ccc2F)O1 [Example 396, (4R,5R)-5-(2,5-difluorophenyl)-4-(5-(pyrazin-2-ylethynyl)pyridin-3-yl)oxazolidin-2-one]	< 100 nM
COc1cccc([C@H]2OC(=O)N[C@@H]2c2cccc(C#Cc3cccc(C#N)c3)c2)c1 [Example 55]	< 100 nM
O=C1N[C@H](c2cc(C#Cc3ccccc3)cnc2F)[C@@H](c2ccccc2F)O1 (single isomer, unassigned) [Example 375]	< 100 nM
COc1cccc([C@H]2OC(=O)N[C@@H]2c2cccc(C#Cc3ccc(OC(F)(F)F)cc3)c2)c1 [Example 268]	> 1000 nM
O=C1N[C@@H](c2cncc(C#Cc3ccccc3)c2)[C@H](c2cccc(Cl)c2Cl)O1 (single isomer, unassigned) [Example 329]	> 1000 nM
O=C1N[C@@H](c2cccc(C#Cc3ccccc3)n2)[C@H](c2ccc(F)cc2F)O1 (single isomer, unassigned) [Example 310]	> 1000 nM
Cn1nccc1[C@H]1OC(=O)N[C@@H]1c1cncc(C#Cc2ccccc2)c1 [Example 342, (4R,5S)-5-(1-methyl-1H-pyrazol-5-yl)-4-(5-(phenylethynyl)pyridin-3-yl)oxazolidin-2-one]	< 100 nM
Cc1ccc([C@@H]2OC(=O)N[C@H]2c2cccc(C#Cc3ccccc3)c2)cc1C (single isomer, unassigned) [Example 102]	> 1000 nM
O=C1N[C@H](c2cc(C#Cc3cncc(F)c3)ncc2F)[C@@H](c2ccc(F)cc2)O1 [Example 144, (4R,5R)-4-(5-Fluoro-2-((5-fluoropyridin-3-yl)ethynyl)pyridin-4-yl)-5-(4-fluorophenyl)oxazolidin-2-one]	< 100 nM
O=C1N[C@H](c2cncc(C#Cc3ccccc3)c2)[C@@H](c2ccnnc2)O1 (single isomer, unassigned) [Example 322]	< 100 nM
COc1cncc(C#Cc2cccc([C@H]3NC(=O)O[C@@H]3c3cccc(OC)c3)c2)c1 [Example 49]	> 1000 nM
O=C1N[C@H](c2cc(C#Cc3cccc(F)n3)cnc2F)[C@@H](c2ccc(F)cc2)O1 [Example 157, (4R,5R)-4-(2-Fluoro-5-((6-fluoropyridin-2-yl)ethynyl)pyridin-3-yl)-5-(4-fluorophenyl)oxazolidin-2-one]	< 100 nM
O=C1N[C@H](c2cc(C#Cc3ccccc3)ccn2)[C@@H](c2ccc(F)cc2)O1 (single isomer, unassigned) [Example 297]	< 100 nM and 4.7 nM
O=C1N[C@H](c2ccc(C#Cc3ccccc3)nc2)[C@@H](c2cccc(F)c2)O1 [Example 408, (4R,5R)-5-(3-Fluorophenyl)-4-(6-(phenylethynyl)pyridin-3-yl)oxazolidin-2-one]	100 to 1000 nM
CNc1ncc(C#Cc2cccc([C@H]3NC(=O)O[C@@H]3c3cccc(OC)c3)c2)cn1 [Example 93]	> 1000 nM
CCOc1ncc(C#Cc2cccc([C@H]3NC(=O)O[C@@H]3c3cccc(OC)c3)c2)cn1 [Example 94, (4R,5R)-4-(3-((2-Ethoxypyrimidin-5-yl)ethynyl)phenyl)-5-(3-methoxyphenyl)oxazolidin-2-one]	> 1000 nM
O=C1N[C@H](c2cncc(C#Cc3cncc(F)c3)c2)[C@@H](c2cc(F)ccc2F)O1 [Example 187]	< 100 nM
C[C@]1(c2cncc(C#Cc3ccccc3)c2)NC(=O)O[C@@H]1c1cc(F)ccc1F (single isomer, unassigned) [Example 407]	< 100 nM
COc1cccc([C@H]2OC(=O)N[C@@H]2c2cccc(C#Cc3cncc(F)c3)c2)c1 [Example 81, (4R,5R)-4-(3-((5-Fluoropyridin-3-yl)ethynyl)phenyl)-5-(3-methoxyphenyl)oxazolidin-2-one]	< 100 nM
COc1cccc([C@H]2OC(=O)N[C@@H]2c2cccc(C#Cc3ccc(C#N)nc3)c2)c1 [Example 70, 5-((3-((4R,5R)-5-(3-Methoxyphenyl)-2-oxazolidin-4-yl)phenyl)ethynyl)picolinonitrile]	> 1000 nM
C[C@@]1(c2cncc(C#Cc3ncccc3F)c2)NC(=O)O[C@H]1c1ccccc1 [Example 230]	> 1000 nM
COc1cccc([C@H]2OC(=O)N[C@@H]2c2cccc(C#Cc3cscn3)c2)c1 [Example 68]	< 100 nM
O=C1N[C@H](c2cncc(C#Cc3ccccc3)c2)[C@H](c2cccc(Cl)c2Cl)O1 (single isomer, unassigned) [Example 331]	> 1000 nM
COc1cccc([C@H]2OC(=O)N[C@@H]2c2cccc(C#Cc3ccnnc3)c2)c1 [Example 200]	> 1000 nM
O=C1N[C@H](c2cncc(C#Cc3ccccn3)c2)[C@@H](c2ccc(F)cc2)O1 [Example 210]	< 100 nM
O=C1N[C@H](c2cc(C#Cc3ccnc(C4CC4)c3)cnc2F)[C@@H](c2ccc(Cl)cc2)O1 [Example 150, (4R,5R)-5-(4-Chlorophenyl)-4-(5-((2-cyclopropylpyridin-4-yl)ethynyl)-2-fluoropyridin-3-yl)oxazolidin-2-one]	> 1000 nM

SMILES	EC50
COc1cccc([C@@H]2OC(=O)N[C@H]2c2cccc(C#Cc3cccc(F)c3)c2)c1 [Example 134, (4S,5S)-4-(3-((3-fluorophenyl)ethynyl)phenyl)-5-(3-methoxyphenyl)oxazolidin-2-one]	> 1000 nM
COc1cccc([C@H]2OC(=O)N[C@@H]2c2cccc(C#Cc3cncc(C)c3)c2)c1 [Example 86, (4R,5R)-5-(3-Methoxyphenyl)-4-(3-((5-methylpyridin-3-yl)ethynyl)phenyl)oxazolidin-2-one]	< 100 nM
O=C1N[C@H](c2cncc(C#Cc3cncnc3)c2)[C@@H](c2cccc(F)c2)O1 [Example 398, (4R,5R)-5-(3-fluorophenyl)-4-(5-(pyrimidin-5-ylethynyl)pyridin-3-yl)oxazolidin-2-one]	100 to 1000 nM and 141 nM
O=C1N[C@@H](c2ccc(C#Cc3ccccc3)cn2)[C@H](c2cccc(F)c2)O1 [Example 409, (4S,5S)-5-(3-Fluorophenyl)-4-(5-(phenylethynyl)pyridin-2-yl)oxazolidin-2-one]	100 to 1000 nM
O=C1N[C@H](c2ccnc(C#Cc3ccccc3)c2)[C@@H](c2ccccc2)O1 [Example 20, (4R,5R)-5-Phenyl-4-(2-(phenylethynyl)pyridin-4-yl)oxazolidin-2-one]	< 100 nM
C[C@]1(c2ccc(F)cc2)OC(=O)N[C@@H]1c1cncc(C#Cc2ccccc2)c1 [Example 203]	< 100 nM and 2.5 nM
O=C1N[C@H](c2cccc(C#Cc3ccccc3)c2)[C@@H](c2cccnc2)O1 [Example 117, (4R,5R)-4-(3-(phenylethynyl)phenyl)-5-(pyridin-3-yl)oxazolidin-2-one]	< 100 nM and 4.7 nM
O=C1N[C@H](c2cc(C#Cc3cccc(Cl)c3)ccn2)[C@@H](c2ccc(F)cc2)O1 (single isomer, unassigned) [Example 347]	> 1000 nM
O=C1N[C@H](c2cncc(C#Cc3cncnc3)c2)[C@@H](c2cc(F)ccc2F)O1 [Example 395, (4R,5R)-5-(2,5-difluorophenyl)-4-(5-(pyrimidin-5-ylethynyl)pyridin-3-yl)oxazolidin-2-one]	100 to 1000 nM
O=C1N[C@@H](c2cccc(C#Cc3ccccn3)n2)[C@H](c2ccccc2)O1 (single isomer, unassigned) [Example 25]	> 1000 nM
C[C@@]1(c2cncc(C#Cc3ccccc3)c2)NC(=O)O[C@H]1c1ccc(F)cc1 [Example 220]	100 to 1000 nM
O=C1N[C@@H](c2cncc(C#Cc3ccccn3)c2)[C@H](c2cc(F)cc(F)c2)O1 [Example 191]	> 1000 nM
COc1ccccc1[C@H]1OC(=O)N[C@H]1c1cncc(C#Cc2ccccc2)c1 (single isomer, unassigned) [Example 336]	> 1000 nM
O=C1N[C@H](c2ccnc(C#Cc3cccnc3)c2)[C@@H](c2cccc(F)c2)O1 [Example 258]	< 100 nM
COc1cccc([C@@H]2OC(=O)N[C@H]2c2ccnc(C#Cc3ccccc3)c2)c1 (single isomer, unassigned) [Example 37]	< 100 nM
O=C1N[C@H](c2cncc(C#Cc3ccccc3)c2)[C@@H](c2ccc(F)cc2)O1 (single isomer, unassigned) [Example 41]	< 100 nM
O=C1N[C@H](c2cncc(C#Cc3cccnc3)c2)[C@@H](c2cc(F)ccc2F)O1 [Example 186]	< 100 nM
O=C1N[C@H](c2cccc(C#Cc3ccccc3)c2)[C@@H](c2nc(-c3ccccn3)no2)O1 [Example 162]	> 1000 nM
O=C1N[C@H](c2cccc(C#Cc3ccccc3)c2)[C@@H](c2cnccn2)O1 [Example 246]	> 1000 nM
O=C1N[C@H](c2cncc(C#Cc3ncccc3F)c2)[C@@H](c2ccc(F)cc2)O1 [Example 209]	< 100 nM
COc1cccc([C@H]2OC(=O)N[C@@H]2c2cccc(C#Cc3ccnc(OC)c3)c2)c1 [Example 89, (4R,5R)-5-(3-Methoxyphenyl)-4-(3-((2-methoxypyridin-4-yl)ethnyl)phenyl)oxazolidin-2-one]	> 1000 nM
Cc1noc([C@H]2OC(=O)N[C@@H]2c2cccc(C#Cc3ccccc3)c2)n1 [Example 166]	> 1000 nM
O=C1N[C@H](c2cncc(C#Cc3ccncc3)c2)[C@@H](c2ccc(F)cc2)O1 [Example 213]	< 100 nM
COc1cccc([C@H]2OC(=O)N[C@@H]2c2cccc(C#Cc3ccnc(F)c3)c2)c1 [Example 73, (4R,5R)-4-(3-((2-Fluoropyridin-4-yl)ethynyl)phenyl)-5-(3-methoxyphenyl)oxazolidin-2-one]	< 100 nM
COc1cccc([C@H]2OC(=O)N[C@@H]2c2cncc(C#Cc3ccccc3)c2)c1 (single isomer, unassigned) [Example 33]	< 100 nM
O=C1N[C@H](c2cncc(C#Cc3ccncn3)c2)[C@@H](c2cc(F)ccc2F)O1 [Example 394, (4R,5R)-5-(2,5-difluorophenyl)-4-(5-(pyrimidin-4-ylethynyl)pyridin-3-yl)oxazolidin-2-one]	> 1000 nM
COc1cccc([C@@H]2OC(=O)N[C@H]2c2cncc(C#Cc3ccccc3)c2)c1 (single isomer, unassigned) [Example 32]	> 1000 nM
